This is an account of results in ChEMBL document CHEMBL1147519, “N-[18F]fluoroethylpiperidin-4-ylmethyl butyrate: a novel radiotracer for quantifying brain butyrylcholinesterase activity by positron emission tomography” (Bioorg Med Chem Lett, 2004).

Series [1] can be described thus: Partition coefficient (logD). The class given is physicochemical. As to conditions: octanol/water.
Series [2] can be described thus: Partition coefficient (logD) (octanol/phosphate buffer). The class given is physicochemical.
In series [3] the target is Cholinesterase (Homo sapiens) (UniProt P06276). In words: Specificity to butyrylcholinesterase.
Cholinesterase (Homo sapiens), sequence (P06276 whole entry): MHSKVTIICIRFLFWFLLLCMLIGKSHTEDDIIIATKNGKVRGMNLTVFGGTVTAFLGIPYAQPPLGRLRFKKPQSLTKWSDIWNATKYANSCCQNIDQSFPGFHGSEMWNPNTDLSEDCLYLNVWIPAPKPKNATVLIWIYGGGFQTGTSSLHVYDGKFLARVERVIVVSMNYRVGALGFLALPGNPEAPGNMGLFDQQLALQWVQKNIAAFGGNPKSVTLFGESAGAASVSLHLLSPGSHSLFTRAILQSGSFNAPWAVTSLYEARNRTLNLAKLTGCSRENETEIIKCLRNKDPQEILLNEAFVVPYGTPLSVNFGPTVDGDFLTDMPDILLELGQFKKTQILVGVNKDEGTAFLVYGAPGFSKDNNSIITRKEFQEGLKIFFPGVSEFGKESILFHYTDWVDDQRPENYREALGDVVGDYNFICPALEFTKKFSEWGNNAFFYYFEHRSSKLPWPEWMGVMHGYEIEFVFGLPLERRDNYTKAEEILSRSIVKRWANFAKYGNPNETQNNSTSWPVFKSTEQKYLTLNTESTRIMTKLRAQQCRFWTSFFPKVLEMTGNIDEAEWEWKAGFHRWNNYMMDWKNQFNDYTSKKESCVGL
The species entered for a further series is Homo sapiens. In words: The estimated hydrolysis rate in the human cerebral cortex. The format is functional.

For `CCCC(=O)OC1CCN(C)CC1`, the logD in series [1] is 0.21; in series [2], -2.2. Further, the Specificity in series [3] amounted to 98%. Also, the Total rate in the series listed under Homo sapiens is 0.033 g⁻¹ min⁻¹ mL⁻¹.
For the compound `CC(=O)OC1CCN(C)CC1`, the results for the logD in series [1] and in series [2] were -0.3 and -2.2, respectively. In addition, in the series filed under Homo sapiens, the Total rate was 0.16 g⁻¹ min⁻¹ mL⁻¹.
In the same order, the values of `CCC(=O)OC1CCN(C)CC1` are -0.22, -2.2 and 0.035 g⁻¹ min⁻¹ mL⁻¹.
With `CCCC(=O)OCC1CCN(CCF)CC1`, the results for the logD in series [1] and in series [2] were 0.62 and -1.3, respectively. The compound further showed a Specificity in series [3] of 98%. Also, the Total rate in the series filed under Homo sapiens was 0.2 g⁻¹ min⁻¹ mL⁻¹.

As usually defined, the logD is the decadic logarithm of the distribution of all forms, ionised or not, between an organic phase and buffer at a given pH.
